Patent US9790178B2, “Pyrrolidinyl urea, thiourea, guanidine and cyanoguanidine compounds as TrkA kinase inhibitors” (Array BioPharma Inc., priority 2012, dated 2017)

Experiments:
Assay in all cases: KinaseProfiler off-target kinase profiling
Format in all cases: biochemical
Conditions in all cases: 10 μM, ATP near Km
ALK4 = molecular target: T1, ALK4 (Homo sapiens, UniProt P36896)
T1 construct: purchased Millipore, Inc. (KinaseProfiler service)
Protocol: (§1) A representative compound of the invention (Example 20) was tested for off-target kinase activity at a concentration of 10 μM by Millipore, Inc. in their KinaseProfiler™ service against all the kinases available in their full kinase panel. The compound was run in duplicate at a concentration of ATP near the Km for each individual kinase according to Millipore's specifications. The results are shown in Table B. Data are reported as percent of control (POC) and are the average of the two replicates.

ARK5 = molecular target: T2, ARK5 (Homo sapiens, UniProt O60285)
T2 construct: purchased Millipore, Inc. (KinaseProfiler service)
Protocol: as §1

BLK_m = molecular target: T3, BLK_m (Mus musculus, UniProt P16277)
T3 construct: purchased Millipore, Inc. (KinaseProfiler service)
Protocol: as §1

CAMK1d = molecular target: T4, CAMK1d (Homo sapiens, UniProt Q8IU85)
T4 construct: purchased Millipore, Inc. (KinaseProfiler service)
Protocol: as §1

CDK2/cyclinE = molecular target: T5, CDK2/cyclinE (Homo sapiens, UniProt P24941)
T5 construct: purchased Millipore, Inc. (KinaseProfiler service)
Protocol: as §1

CDK7/cyclinH/MAT1 = molecular target: T6, CDK7/cyclinH/MAT1 (Homo sapiens, UniProt P50613)
T6 construct: purchased Millipore, Inc. (KinaseProfiler service)
Protocol: as §1

CK1_y = tested on: CK1_y
Protocol: as §1

DCAMKL2 = molecular target: T7, DCAMKL2 (Homo sapiens, UniProt Q8N568)
T7 construct: purchased Millipore, Inc. (KinaseProfiler service)
Protocol: as §1

DRAK1 = molecular target: T8, DRAK1 (Homo sapiens, UniProt Q9UEE5)
T8 construct: purchased Millipore, Inc. (KinaseProfiler service)
Protocol: as §1

EphA1 = molecular target: T9, EphA1 (Homo sapiens, UniProt P21709)
T9 construct: purchased Millipore, Inc. (KinaseProfiler service)
T9 sequence (P21709 26-976): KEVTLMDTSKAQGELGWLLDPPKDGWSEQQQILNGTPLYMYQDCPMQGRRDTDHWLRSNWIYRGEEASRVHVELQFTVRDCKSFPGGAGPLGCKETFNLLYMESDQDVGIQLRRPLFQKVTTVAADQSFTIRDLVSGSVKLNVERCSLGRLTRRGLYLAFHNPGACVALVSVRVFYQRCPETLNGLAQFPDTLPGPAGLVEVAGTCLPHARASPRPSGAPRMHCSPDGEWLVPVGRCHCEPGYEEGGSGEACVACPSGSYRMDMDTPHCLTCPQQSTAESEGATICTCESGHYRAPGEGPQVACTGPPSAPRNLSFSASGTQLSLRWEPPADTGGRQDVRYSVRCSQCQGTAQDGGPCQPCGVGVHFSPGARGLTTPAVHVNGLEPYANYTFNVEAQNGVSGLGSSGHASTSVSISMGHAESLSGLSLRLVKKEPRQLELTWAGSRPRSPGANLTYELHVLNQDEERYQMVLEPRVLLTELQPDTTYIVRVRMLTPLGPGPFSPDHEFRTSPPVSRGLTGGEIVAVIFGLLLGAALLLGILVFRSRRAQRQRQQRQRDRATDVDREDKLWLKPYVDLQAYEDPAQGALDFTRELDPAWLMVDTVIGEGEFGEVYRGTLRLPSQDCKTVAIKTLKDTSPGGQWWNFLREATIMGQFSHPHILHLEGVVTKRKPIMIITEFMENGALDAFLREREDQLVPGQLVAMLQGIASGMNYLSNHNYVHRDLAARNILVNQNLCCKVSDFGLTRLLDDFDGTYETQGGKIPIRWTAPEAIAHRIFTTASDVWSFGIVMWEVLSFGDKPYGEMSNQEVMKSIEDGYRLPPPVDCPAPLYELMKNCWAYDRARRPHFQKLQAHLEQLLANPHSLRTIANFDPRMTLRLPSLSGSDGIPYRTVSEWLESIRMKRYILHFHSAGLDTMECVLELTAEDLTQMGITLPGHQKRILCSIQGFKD
Protocol: as §1

EphA4 = molecular target: T10, EphA4 (Homo sapiens, UniProt P54764)
T10 construct: purchased Millipore, Inc. (KinaseProfiler service)
Protocol: as §1

FAK = molecular target: T11, FAK (Homo sapiens, UniProt Q05397)
T11 construct: purchased Millipore, Inc. (KinaseProfiler service)
Protocol: as §1

Fyn = molecular target: T12, Fyn (Homo sapiens, UniProt P06241)
T12 construct: purchased Millipore, Inc. (KinaseProfiler service)
Protocol: as §1

GRK5 = molecular target: T13, GRK5 (Homo sapiens, UniProt P34947)
T13 construct: purchased Millipore, Inc. (KinaseProfiler service)
Protocol: as §1

GRK7 = molecular target: T14, GRK7 (Homo sapiens, UniProt Q8WTQ7)
T14 construct: purchased Millipore, Inc. (KinaseProfiler service)
Protocol: as §1

HIPK2 = molecular target: T15, HIPK2 (Homo sapiens, UniProt Q9H2X6)
T15 construct: purchased Millipore, Inc. (KinaseProfiler service)
T15 sequence (Q9H2X6 whole entry): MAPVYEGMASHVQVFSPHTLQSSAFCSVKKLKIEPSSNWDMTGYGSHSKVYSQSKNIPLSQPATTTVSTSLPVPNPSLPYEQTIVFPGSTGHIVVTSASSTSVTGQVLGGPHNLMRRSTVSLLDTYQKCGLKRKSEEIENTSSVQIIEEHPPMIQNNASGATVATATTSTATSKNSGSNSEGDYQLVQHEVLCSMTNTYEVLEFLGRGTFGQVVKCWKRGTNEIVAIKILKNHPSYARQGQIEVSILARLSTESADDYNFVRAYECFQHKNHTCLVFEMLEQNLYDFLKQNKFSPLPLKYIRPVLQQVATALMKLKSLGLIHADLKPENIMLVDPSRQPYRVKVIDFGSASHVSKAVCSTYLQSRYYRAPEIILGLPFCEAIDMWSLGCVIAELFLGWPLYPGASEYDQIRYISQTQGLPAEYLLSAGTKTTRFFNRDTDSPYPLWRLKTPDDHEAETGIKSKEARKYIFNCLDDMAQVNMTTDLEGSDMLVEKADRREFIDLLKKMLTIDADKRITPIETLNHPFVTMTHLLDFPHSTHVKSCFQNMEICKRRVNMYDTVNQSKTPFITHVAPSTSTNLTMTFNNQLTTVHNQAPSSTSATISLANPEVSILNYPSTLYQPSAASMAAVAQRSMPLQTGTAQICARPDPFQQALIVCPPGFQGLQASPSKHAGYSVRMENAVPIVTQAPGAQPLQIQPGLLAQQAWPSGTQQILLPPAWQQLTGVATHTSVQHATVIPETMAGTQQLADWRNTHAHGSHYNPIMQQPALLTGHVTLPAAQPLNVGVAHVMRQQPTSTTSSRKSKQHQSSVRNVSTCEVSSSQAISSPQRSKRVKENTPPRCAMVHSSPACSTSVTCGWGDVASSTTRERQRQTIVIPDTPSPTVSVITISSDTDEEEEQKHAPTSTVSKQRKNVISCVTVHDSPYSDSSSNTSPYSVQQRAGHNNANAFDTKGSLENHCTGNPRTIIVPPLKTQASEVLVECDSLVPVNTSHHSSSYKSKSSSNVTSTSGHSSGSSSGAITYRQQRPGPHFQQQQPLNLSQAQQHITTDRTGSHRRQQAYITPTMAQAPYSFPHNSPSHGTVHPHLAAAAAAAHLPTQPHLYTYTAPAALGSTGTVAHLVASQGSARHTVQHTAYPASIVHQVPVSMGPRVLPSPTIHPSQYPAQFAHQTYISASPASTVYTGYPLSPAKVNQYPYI
Protocol: as §1

IKKalpha = molecular target: T16, IKKalpha (Homo sapiens, UniProt O15111)
T16 construct: purchased Millipore, Inc. (KinaseProfiler service)
Protocol: as §1

JNK2alpha2 = molecular target: T17, JNK2alpha2 (Homo sapiens, UniProt P45984)
T17 construct: purchased Millipore, Inc. (KinaseProfiler service)
T17 sequence (P45984 whole entry): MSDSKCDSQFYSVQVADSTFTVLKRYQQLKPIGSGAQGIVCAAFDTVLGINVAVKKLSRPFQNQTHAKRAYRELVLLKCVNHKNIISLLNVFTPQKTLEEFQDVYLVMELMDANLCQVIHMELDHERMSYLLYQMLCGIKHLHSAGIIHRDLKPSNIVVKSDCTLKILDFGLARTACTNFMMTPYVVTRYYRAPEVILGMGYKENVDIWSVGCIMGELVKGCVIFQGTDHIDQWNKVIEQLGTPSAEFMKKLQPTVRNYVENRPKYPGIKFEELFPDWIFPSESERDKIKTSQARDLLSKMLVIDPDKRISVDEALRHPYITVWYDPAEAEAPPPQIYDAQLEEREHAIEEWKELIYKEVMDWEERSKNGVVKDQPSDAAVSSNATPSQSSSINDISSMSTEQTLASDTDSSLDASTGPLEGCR
Protocol: as §1

KIT = molecular target: T18, KIT (Homo sapiens, UniProt P10721)
T18 construct: purchased Millipore, Inc. (KinaseProfiler service)
Protocol: as §1

MAP3K5 = molecular target: T19, MAP3K5 (Homo sapiens, UniProt Q99683)
T19 construct: purchased Millipore, Inc. (KinaseProfiler service)
Protocol: as §1

MRCKalpha = molecular target: T20, MRCKalpha (Homo sapiens, UniProt Q5VT25)
T20 construct: purchased Millipore, Inc. (KinaseProfiler service)
Protocol: as §1

MRCKbeta = molecular target: T21, MRCKbeta (Homo sapiens, UniProt Q9Y5S2)
T21 construct: purchased Millipore, Inc. (KinaseProfiler service)
Protocol: as §1

MSK2 = molecular target: T22, MSK2 (Homo sapiens, UniProt O75676)
T22 construct: purchased Millipore, Inc. (KinaseProfiler service)
Protocol: as §1

MST3 = molecular target: T23, MST3 (Homo sapiens, UniProt Q9Y6E0)
T23 construct: purchased Millipore, Inc. (KinaseProfiler service)
Protocol: as §1

PAK6 = molecular target: T24, PAK6 (Homo sapiens, UniProt Q9NQU5)
T24 construct: purchased Millipore, Inc. (KinaseProfiler service)
T24 sequence (Q9NQU5 whole entry): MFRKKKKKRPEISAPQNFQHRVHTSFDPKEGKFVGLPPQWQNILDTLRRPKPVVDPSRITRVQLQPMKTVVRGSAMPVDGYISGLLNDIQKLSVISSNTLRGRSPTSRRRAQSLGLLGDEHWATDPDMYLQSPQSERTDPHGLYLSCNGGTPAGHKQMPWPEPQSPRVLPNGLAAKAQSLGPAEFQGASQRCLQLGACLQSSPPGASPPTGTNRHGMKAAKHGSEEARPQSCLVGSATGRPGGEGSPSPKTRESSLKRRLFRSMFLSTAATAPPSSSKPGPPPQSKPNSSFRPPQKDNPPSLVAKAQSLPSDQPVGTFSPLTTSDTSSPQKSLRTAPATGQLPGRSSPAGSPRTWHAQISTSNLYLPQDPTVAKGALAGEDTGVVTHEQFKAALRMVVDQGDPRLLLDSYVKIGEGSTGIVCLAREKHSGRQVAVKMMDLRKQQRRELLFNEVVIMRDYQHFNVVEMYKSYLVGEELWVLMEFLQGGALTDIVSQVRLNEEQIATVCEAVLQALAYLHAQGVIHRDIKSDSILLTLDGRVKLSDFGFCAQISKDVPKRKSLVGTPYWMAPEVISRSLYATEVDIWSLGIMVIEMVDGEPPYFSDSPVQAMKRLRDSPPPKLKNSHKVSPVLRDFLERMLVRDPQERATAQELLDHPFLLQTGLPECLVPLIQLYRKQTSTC
Protocol: as §1

PDGFRalpha = molecular target: T25, PDGFRalpha (Homo sapiens, UniProt P16234)
T25 construct: purchased Millipore, Inc. (KinaseProfiler service)
Protocol: as §1

PKAC-alpha = molecular target: T26, PKAC-alpha (Homo sapiens, UniProt P17612)
T26 construct: purchased Millipore, Inc. (KinaseProfiler service)
Protocol: as §1

PKCdelta = molecular target: T27, PKCdelta (Homo sapiens, UniProt Q05655)
T27 construct: purchased Millipore, Inc. (KinaseProfiler service)
Protocol: as §1

PKCeta = molecular target: T28, PKCeta (Homo sapiens, UniProt P24723)
T28 construct: purchased Millipore, Inc. (KinaseProfiler service)
Protocol: as §1

PKCgamma = molecular target: T29, PKCgamma (Homo sapiens, UniProt P05129)
T29 construct: purchased Millipore, Inc. (KinaseProfiler service)
Protocol: as §1

PKD2 = molecular target: T30, PKD2 (Homo sapiens, UniProt Q9BZL6)
T30 construct: purchased Millipore (KinaseProfiler service)
Protocol: as §1

PRKG1beta = molecular target: T31, PRKG1beta (Homo sapiens, UniProt Q13976)
T31 construct: purchased Millipore (KinaseProfiler service)
Protocol: as §1

Plk2 = molecular target: T32, Plk2 (Homo sapiens, UniProt Q9NYY3)
T32 construct: purchased Millipore (KinaseProfiler service)
Protocol: as §1

Rsk1 = molecular target: T33, Rsk1 (Homo sapiens, UniProt Q15418)
T33 construct: purchased Millipore (KinaseProfiler service)
Protocol: as §1

SRPK1 = molecular target: T34, SRPK1 (Homo sapiens, UniProt Q96SB4)
T34 construct: purchased Millipore, Inc. (KinaseProfiler service)
Protocol: as §1

TAO3 = molecular target: T35, TAO3 (Homo sapiens, UniProt Q9H2K8)
T35 construct: purchased Millipore, Inc. (KinaseProfiler service)
Protocol: as §1

TNK2 = molecular target: T36, TNK2 (Homo sapiens, UniProt Q07912)
T36 construct: purchased Millipore, Inc. (KinaseProfiler service)
T36 sequence (Q07912 whole entry): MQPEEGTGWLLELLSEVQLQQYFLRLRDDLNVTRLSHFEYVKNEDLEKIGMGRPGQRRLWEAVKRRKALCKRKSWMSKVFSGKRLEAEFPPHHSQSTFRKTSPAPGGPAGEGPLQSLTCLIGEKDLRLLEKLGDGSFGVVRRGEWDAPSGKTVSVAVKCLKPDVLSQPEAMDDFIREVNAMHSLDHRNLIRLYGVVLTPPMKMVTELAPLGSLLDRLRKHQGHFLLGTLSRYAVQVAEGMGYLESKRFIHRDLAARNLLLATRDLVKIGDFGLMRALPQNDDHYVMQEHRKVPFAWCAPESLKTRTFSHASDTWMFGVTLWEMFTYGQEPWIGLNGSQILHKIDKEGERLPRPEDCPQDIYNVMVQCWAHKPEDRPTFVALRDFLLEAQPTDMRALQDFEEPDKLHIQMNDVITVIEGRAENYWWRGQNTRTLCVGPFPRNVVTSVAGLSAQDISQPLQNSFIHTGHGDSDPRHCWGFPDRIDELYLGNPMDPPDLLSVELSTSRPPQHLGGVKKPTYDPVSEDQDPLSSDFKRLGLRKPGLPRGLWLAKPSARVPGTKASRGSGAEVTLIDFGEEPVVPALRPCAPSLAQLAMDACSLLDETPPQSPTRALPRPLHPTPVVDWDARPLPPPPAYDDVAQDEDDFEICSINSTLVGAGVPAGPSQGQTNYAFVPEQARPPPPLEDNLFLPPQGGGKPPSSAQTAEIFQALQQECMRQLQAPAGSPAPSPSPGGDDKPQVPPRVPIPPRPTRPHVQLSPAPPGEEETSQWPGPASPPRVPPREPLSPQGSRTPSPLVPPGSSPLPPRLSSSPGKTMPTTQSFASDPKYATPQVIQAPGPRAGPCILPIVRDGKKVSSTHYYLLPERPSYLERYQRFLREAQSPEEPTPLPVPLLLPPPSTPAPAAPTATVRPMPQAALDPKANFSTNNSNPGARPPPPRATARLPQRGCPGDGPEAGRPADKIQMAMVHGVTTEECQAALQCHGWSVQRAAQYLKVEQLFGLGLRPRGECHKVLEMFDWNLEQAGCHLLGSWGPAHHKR
Protocol: as §1

TSSK2 = molecular target: T37, TSSK2 (Homo sapiens, UniProt Q96PF2)
T37 construct: purchased Millipore, Inc. (KinaseProfiler service)
Protocol: as §1

TrkA = molecular target: T38, TrkA (Homo sapiens, UniProt P04629)
T38 construct: purchased Millipore, Inc. (KinaseProfiler service)
Protocol: as §1

TrkB = molecular target: T39, TrkB (Homo sapiens, UniProt Q16620)
T39 construct: purchased Millipore, Inc. (KinaseProfiler service)
Protocol: as §1

WNK3 = molecular target: T40, WNK3 (Homo sapiens, UniProt Q9BYP7)
T40 construct: purchased Millipore, Inc. (KinaseProfiler service)
Protocol: as §1

Avg. POC (ALK4): 98.5 POC
Avg. POC (ARK5): 104 POC
Avg. POC (BLK_m): 113 POC
Avg. POC (CAMK1d): 107.5 POC
Avg. POC (CDK2/cyclinE): 118.5 POC
Avg. POC (CDK7/cyclinH/MAT1): 101.5 POC
Avg. POC (CK1_y): 104 POC
Avg. POC (DCAMKL2): 126.5 POC
Avg. POC (DRAK1): 107 POC
Avg. POC (EphA1): 99 POC
Avg. POC (EphA4): 106 POC
Avg. POC (FAK): 109.5 POC
Avg. POC (Fyn): 128.5 POC
Avg. POC (GRK5): 108 POC
Avg. POC (GRK7): 96.5 POC
Avg. POC (HIPK2): 102 POC
Avg. POC (IKKalpha): 121 POC
Avg. POC (JNK2alpha2): 107.5 POC
Avg. POC (KIT): 117.5 POC
Avg. POC (MAP3K5): 88 POC
Avg. POC (MRCKalpha): 101.5 POC
Avg. POC (MRCKbeta): 118.5 POC
Avg. POC (MSK2): 126 POC
Avg. POC (MST3): 104 POC
Avg. POC (PAK6): 102 POC
Avg. POC (PDGFRalpha): 105.5 POC
Avg. POC (PKAC-alpha): 114 POC
Avg. POC (PKCdelta): 106.5 POC
Avg. POC (PKCeta): 105.5 POC
Avg. POC (PKCgamma): 111 POC
Avg. POC (PKD2): 113.5 POC
Avg. POC (PRKG1beta): 124 POC
Avg. POC (Plk2): 106 POC
Avg. POC (Rsk1): 115 POC
Avg. POC (SRPK1): 113.5 POC
Avg. POC (TAO3): 103 POC
Avg. POC (TNK2): 94.5 POC
Avg. POC (TSSK2): 106 POC
Avg. POC (TrkA): 0 POC
Avg. POC (TrkB): 0.5 POC
Avg. POC (WNK3): 115.5 POC
SMILES: COCCN1C[C@@H](NC(=O)Nc2c(-c3ccccc3)nc3c(C)nccn23)[C@H](c2ccc(F)c(F)c2)C1 [Example 20, 1-((3S,4R)-4-(3,4-difluorophenyl)-1-(2-methoxyethyl)pyrrolidin-3-yl)-3-(8-methyl-2-phenylimidazo[1,2-a]pyrazin-3-yl)urea]
